Source: patent US12606570B2, “Deuterated compounds and imaging agents for imaging huntingtin protein” (CHDI Foundation, Inc., priority 2021, dated 2026)
pIC50: −log10 of the molar value.

Biological target: T1, Exon1-Q46 protein aggregates (MBP-HTT(1-89)Q46-His(6×)) (Homo sapiens, UniProt P42858, INS38QQQQQQQQQQQQQQQQQQQQQQQQQ)
T1 construct: MBP-HTT(1-89)Q46-His(6×); MBP (N, cleaved yes); His(6×) (C); made in house
Assay: Exon1-Q46 radioligand binding assay (RBA)
Conditions: displacement of 0.3 nM [3H3-methyl]-5-((5-methoxypyridin-2-yl)methoxy)-2-(pyrazin-2-yl)benzo[d]oxazole; 1 μM Exon1-Q46 aggregates; read-out: Potency Range
Protocol: Exon1-Q46 Radioligand Binding Assay
For radioligand binding assays (RBA), MBP-HTT(1-89)Q46-His(6×) (“Exon1-Q46”) protein was generated based on a previous publication (Scherzinger et al. Cell, Vol. 90, 549-558, Aug. 8, 1997). For experiments, 30 μM MBP-Exon1-Q46 was incubated with 150 μg/mL thrombin in assay buffer (150 mM NaCl, 50 mM Tris pH 8.0) and 2 mM CaCl2 for 16 hours at 37° C. Aggregated Exon1-Q46 was pelleted by centrifugation for 5 minutes at 13,000 rpm in a bench top centrifuge and re-dissolved in the same volume of assay buffer. Test compounds were prepared by titration in DMSO at 11 concentrations from 63 μM to 2 nM. For the RBA, Exon1-Q46 protein aggregates and test compounds were pre-incubated in assay buffer for 20 minutes at room temperature, in 100 μL/well in a 96-well plate (pp, round bottom). Then, ligand was added in 50 µL/well and incubated for 60 minutes at 37° C. Final assay concentrations were […] test compound, 1 μM Exon1-Q46 protein (equivalent monomer concentration), and 0.3 nM ligand [^3H3-methyl]-5-((5-methoxypyridin-2-yl)methoxy)-2-(pyrazin-2-yl)benzo[d]oxazole. Samples were transferred onto GF/B filter plates and washed 2× with 200 μL PBS using a Filtermate Harvester. After drying filter plates for 1 hour at 55° C., the back of the plates were sealed with foil and 30 μL/well scintillation fluid (Packard MicroScint 40) added, incubated for 15 minutes in the dark, and counted in a MicroBeta reader. For analysis, replicate data from independent assay plates were normalized towards 0% and 100% inhibition using control wells of vehicle (0% inhibition) and […] unlabelled [^3H3-methyl]-5-((5-methoxypyridin-2-yl)methoxy)-2-(pyrazin-2-yl)benzo[d]oxazole (100% inhibition). IC50 values were determined with a sigmoidal inhibition model with four variables (top, bottom, slope, IC50) in a global fit using the normalized replicate data.
The results for various example compounds were as provided in the table below (+++<100 nM; ++100-500 nM; +>500 nM; ND: not determined): […]

T1 sequence (P42858 with tags, fused parts or gaps with the stated changes limits assumed): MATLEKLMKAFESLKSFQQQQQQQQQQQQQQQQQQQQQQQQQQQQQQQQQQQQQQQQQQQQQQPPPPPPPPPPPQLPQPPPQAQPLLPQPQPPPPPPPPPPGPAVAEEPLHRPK

Row | SMILES | pIC50
1 | Cc1cc(-c2nc3cc(OCc4ccc(OCCF)cn4)cnc3o2)ncn1 [Compound 5-1, 6-((5-(2-Fluoroethoxy)pyridin-2-yl)methoxy)-2-(6-methylpyrimidin-4-yl) oxazolo[5,4-b]pyridine] | > 7.00
2 | COc1ccc(COc2cnc3oc(-c4cc(C)ncn4)nc3c2)nc1 [Compound 4-1, 4-{6-[(5-Methoxypyridin-2-yl)methoxy]-[1,3]oxazolo[5,4-b]pyridin-2-yl}-6-methylpyrimidine] | > 7.00
3 | [2H]C([2H])(F)C([2H])([2H])Oc1ccc(COc2cnc3oc(-c4cc(C)ncn4)nc3c2)nc1 [Compound 1-1, 6-((5-(2-Fluoroethoxy-1,1,2,2-d4)pyridin-2-yl)methoxy)-2-(6-methyl-pyrimidin-4-yl)oxazolo[5,4-b]pyridine] | > 7.00
4 | Cc1ccc(S(=O)(=O)OCCOc2ccc(COc3cnc4oc(-c5cc(C)ncn5)nc4c3)nc2)cc1 [Compound 1-2, 2-((6-(((2-(6-Methylpyrimidin-4-yl)oxazolo[5,4-b]pyridin-6-yl)oxy)-methyl)pyridin-3-yl)oxy)ethyl 4-methylbenzenesulfonate] | > 7.00

The remaining lines, values ahead:

Row | pIC50 | SMILES
5 | > 7.00 | COc1ccc(COc2cnc3oc(-c4cc(OCCF)ncn4)nc3c2)nc1 [Compound 3-1, 4-(2-Fluoroethoxy)-6-{6-[(5-methoxypyridin-2-yl)methoxy]-[1,3]oxazolo[5,4-b]pyridin-2-yl}pyrimidine]
6 | > 7.00 | COc1cnc(COc2cnc3oc(-c4cc(C)ncn4)nc3c2)c(F)c1 [Compound 1-3, 6-((3-Fluoro-5-methoxypyridin-2-yl)methoxy)-2-(6-methylpyrimidin-4-yl)oxazolo[5,4-b]pyridine]
7 | > 7.00 | Cc1cc(-c2nc3cc(OCc4ccc(OCF)cn4)cnc3o2)ncn1 [Compound 5-3, 6-((5-(Fluoromethoxy)pyridin-2-yl)methoxy)-2-(6-methylpyrimidin-4-yl) oxazolo[5,4-b]pyridine]
8 | > 7.00 | C=CCOc1ccc(COc2cnc3oc(-c4cc(C)ncn4)nc3c2)nc1 [Compound 5-2, 6-((5-(Allyloxy)pyridin-2-yl)methoxy)-2-(6-methylpyrimidin-4-yl) oxazolo[5,4-b]pyridine]
9 | > 7.00 | COc1ccc(COc2cnc3oc(-c4ccnc(C)n4)nc3c2)nc1 [Compound 2-1]
